The values below come from patent publication US20160297833A1, “THIENOPYRIMIDINES AS MKNK1 AND MKNK2 INHIBITORS” (BAYER PHARMA AKTIENGESELLSCHAFT, priority 2013, published 2016).

T1 sequence (Q9BUB5 1-424 isoform Q9BUB5-2 T344D): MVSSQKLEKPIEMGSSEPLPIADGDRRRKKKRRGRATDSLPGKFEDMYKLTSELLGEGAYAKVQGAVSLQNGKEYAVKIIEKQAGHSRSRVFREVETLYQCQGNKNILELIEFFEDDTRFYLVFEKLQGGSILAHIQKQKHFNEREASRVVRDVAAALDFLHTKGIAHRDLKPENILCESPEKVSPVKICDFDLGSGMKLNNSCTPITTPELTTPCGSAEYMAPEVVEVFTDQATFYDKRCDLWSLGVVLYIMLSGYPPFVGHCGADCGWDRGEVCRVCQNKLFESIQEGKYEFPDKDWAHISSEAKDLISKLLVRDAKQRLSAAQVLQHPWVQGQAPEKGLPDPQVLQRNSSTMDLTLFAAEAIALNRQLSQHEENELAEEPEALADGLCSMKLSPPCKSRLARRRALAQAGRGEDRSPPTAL

The first assay addresses T1, human full-length MKNK1 (Homo sapiens, UniProt Q9BUB5, T385D).
T1 construct: GST (N); purchased Carna Biosciences 02-145; host or cells: insect cells (baculovirus expression system)
Put plainly: MKNK1 kinase high ATP assay (TR-FRET). As to conditions: Table 1; MKNK1 kinase high ATP assay, 2 mM ATP; read-out: MKNK1 IC50. The format is biochemical. The procedure: MKNK1 Kinase High ATP Assay
MKNK1-inhibitory activity at high ATP of compounds of the present invention after their preincubation with MKNK1 was quantified employing the TR-FRET-based MKNK1 high ATP assay as described in the following paragraphs.
As substrate for the kinase reaction the biotinylated peptide biotin-Ahx-[…] (C-terminus in amide form) was used, which can be purchased e.g. from the company Biosyntan (Berlin-Buch, Germany).
For the assay 50 nL of a 100 fold concentrated solution of the test compound in DMSO was pipetted into a black low volume 384 well microtiter plate (Greiner Bio-One, Frickenhausen, Germany), 2 μL of a solution of MKNK1 in aqueous assay buffer [50 mM HEPES pH 7.5, 5 mM MgCl2, 1.0 mM dithiothreitol, 0.005% (v/v) Nonidet-P40 (Sigma)] was added and the mixture was incubated for 15 min at 22° C. to allow pre-binding of the test compounds to the enzyme before the start of the kinase reaction. Then the kinase reaction was started by the addition of 3 μL of a solution of adenosine-tri-phosphate (ATP, 3.3 mM=>final conc. in the 5 μL assay volume is 2 mM) and substrate (0.1 μM=>final conc. in the 5 μL assay volume is 0.06 μM) in assay buffer and the resulting mixture was incubated for a reaction time of 30 min at 22° C. The concentration of MKNK1 was adjusted depending of the activity of the enzyme lot and was chosen appropriate to have the assay in the linear range, typical concentrations were in the range of 0.003 μg/mL. The reaction was stopped by the addition of 5 μL of a solution of TR-FRET detection reagents (5 nM streptavidine-XL665 [Cisbio Bioassays, Codolet, France] and 1 nM anti-ribosomal protein S6 (pSer236)-antibody from Invitrogen [#44921G] and 1 nM LANCE EU-W1024 labeled ProteinG [Perkin-Elmer, product no. AD0071]) in an aqueous EDTA-solution (100 mM EDTA, 0.1% (w/v) bovine serum albumin in 50 mM HEPES pH 7.5).
The resulting mixture was incubated for 1 h at 22° C. to allow the formation of complex between the phosphorylated biotinylated peptide and the detection reagents. Subsequently the amount of phosphorylated substrate was evaluated by measurement of the resonance energy transfer from the Eu-chelate to the streptavidine-XL. Therefore, the fluorescence emissions at 620 nm and 665 nm after excitation at 350 nm were measured in a TR-FRET reader, e.g. a Rubystar (BMG Labtechnologies, Offenburg, Germany) or a Viewlux (Perkin-Elmer). The ratio of the emissions at 665 nm and at 622 nm was taken as the measure for the amount of phosphorylated substrate.
Consider `CN(C)C1CCN(c2cc3[nH]ncc3cc2Nc2ncnc3sc4c(c23)CC[C@H](C(=O)N2C[C@@H]3C[C@H]2CO3)C4)CC1` [Example 153, [(7S)-4-({6-[4-(Dimethylamino)piperidin-1-yl]-1H-indazol-5-yl}amino)-5,6,7,8-tetrahydro[1]benzothieno[2,3-d]pyrimidin-7-yl][(1S,4S)-2-oxa-5-azabicyclo[2.2.1]hept-5-yl]methanone], for which the IC50 (usually the concentration needed to halve the response being measured) was determined as 17.5 nM.
The same measure, in the same setting: with `O=C([C@H]1CCc2c(sc3ncnc(Nc4cc5cn[nH]c5cc4F)c23)C1)N1CC2CC2C1` (stereo partly drawn) [Example 220, 3-Azabicyclo[3.1.0]hex-3-yl{(7S)-4-[(6-fluoro-1H-indazol-5-yl)amino]-5,6,7,8-tetrahydro[1]benzothieno[2,3-d]pyrimidin-7-yl}methanone] the figure was 4.3 nM; with `CSc1cc2[nH]ncc2cc1Nc1ncnc2sc3c(c12)CC[C@H](C(=O)N1CCOCC1)C3` [Example 255, [(7S)-4-{[6-(Methylsulfanyl)-1H-indazol-5-yl]amino}-5,6,7,8-tetrahydro[1]benzothieno[2,3-d]pyrimidin-7-yl](morpholin-4-yl)methanone], 2 nM; with `CN(C)C(=O)[C@H]1CCc2c(sc3ncnc(Nc4cc5cn[nH]c5cc4OC4CCOCC4)c23)C1` [Example 200, (7S)—N,N-Dimethyl-4-{[6-(tetrahydro-2H-pyran-4-yloxy)-1H-indazol-5-yl]amino}-5,6,7,8-tetrahydro[1]benzothieno[2,3-d]pyrimidine-7-carboxamide], 1.6 nM.
With `COCCN(CCOC)C(=O)[C@H]1CCc2c(sc3ncnc(Nc4ccc5[nH]ncc5c4)c23)C1` [Example 16, (7S)-4-(1H-Indazol-5-ylamino)-N,N-bis(2-methoxyethyl)-5,6,7,8-tetrahydro[1]benzothieno[2,3-d]pyrimidine-7-carboxamide], the IC50 turned out to be 2.4 nM.
Turning to `C=CCN(C)c1cc2[nH]ncc2cc1Nc1ncnc2sc3c(c12)CC[C@H](C(=O)N(C)C)C3` [Example 128, (7S)—N,N-Dimethyl-4-({6-[methyl(prop-2-en-1-yl)amino]-1H-indazol-5-yl}amino)-5,6,7,8-tetrahydro[1]benzothieno[2,3-d]pyrimidine-7-carboxamide], the IC50 was 1 nM.
Same read-out and setting: with `COc1cc2[nH]ncc2cc1Nc1ncnc2sc3c(c12)CC[C@H](C(=O)N(C)OC)C3` [Example 198, (7S)—N-Methoxy-4-[(6-methoxy-1H-indazol-5-yl)amino]-N-methyl-5,6,7,8-tetrahydro[1]benzothieno[2,3-d]pyrimidine-7-carboxamide] the figure was 0.2 nM; with `CN(C)C(=O)[C@H]1CCc2c(sc3ncnc(Nc4cc5cn[nH]c5cc4O[C@H]4CCOC4)c23)C1` [Example 280, (7S)—N,N-Dimethyl-4-({6-[(3S)-tetrahydrofuran-3-yloxy]-1H-indazol-5-yl}amino)-5,6,7,8-tetrahydro[1]benzothieno[2,3-d]pyrimidine-7-carboxamide], 1 nM.
Same read-out and setting: with `CSc1cc2[nH]ncc2cc1Nc1ncnc2sc3c(c12)CC[C@H](C(=O)N1CCOC[C@H]1C)C3` [Example 248, [(3R)-3-Methylmorpholin-4-yl][(7S)-4-{[6-(methylsulfanyl)-1H-indazol-5-yl]amino}-5,6,7,8-tetrahydro[1]benzothieno[2,3-d]pyrimidin-7-yl]methanone] the figure was 2.2 nM.
Same read-out and setting: for `COc1cc2[nH]ncc2cc1Nc1ncnc2sc3c(c12)CC[C@H](C(=O)N1CC[C@H](N(C)C)C1)C3` [Example 45, [(3S)-3-(Dimethylamino)pyrrolidin-1-yl]{(7S)-4-[(6-methoxy-1H-indazol-5-yl)amino]-5,6,7,8-tetrahydro[1]benzothieno[2,3-d]pyrimidin-7-yl}methanone] the value was 0.2 nM; for `COc1cc2[nH]ncc2cc1Nc1ncnc2sc3c(c12)CC[C@H](C(=O)N1CCSCC1)C3` [Example 207, {(7S)-4-[(6-methoxy-1H-indazol-5-yl)amino]-5,6,7,8-tetrahydro[1]benzothieno[2,3-d]pyrimidin-7-yl}(thiomorpholin-4-yl)methanone], 0.2 nM; for `O=C([C@H]1CCc2c(sc3ncnc(Nc4ccc5[nH]ncc5c4)c23)C1)N1CC2(COC2)C1` [Example 12, [(7S)-4-(1H-Indazol-5-ylamino)-5,6,7,8-tetrahydro[1]benzothieno[2,3-d]pyrimidin-7-yl](2-oxa-6-azaspiro[3.3]hept-6-yl)methanone], 22.7 nM.
Consider `C[C@H]1CN(C(=O)[C@H]2CCc3c(sc4ncnc(Nc5cc6cn[nH]c6cc5F)c34)C2)C[C@H](C)O1` [Example 225, [(2S,6S)-2,6-Dimethylmorpholin-4-yl]{(7S)-4-[(6-fluoro-1H-indazol-5-yl)amino]-5,6,7,8-tetrahydro[1]benzothieno[2,3-d]pyrimidin-7-yl}methanone], for which the concentration for half-maximal inhibition (IC50) came to 8.7 nM.
With `COc1cc2[nH]ncc2cc1Nc1ncnc2sc3c(c12)CC[C@H](C(=O)N(CCC(=O)N(C)C)C1CC1)C3` [Example 56, (7S)—N-Cyclopropyl-N-[3-(dimethylamino)-3-oxopropyl]-4-[(6-methoxy-1H-indazol-5-yl)amino]-5,6,7,8-tetrahydro[1]benzothieno[2,3-d]pyrimidine-7-carboxamide], the IC50 came out at 0.3 nM.
The same measure, in the same setting: for `COCCN(CCO)C(=O)[C@@H]1CCc2c(sc3ncnc(Nc4cc5cn[nH]c5cc4OC)c23)C1` [Example 43, (7R)—N-(2-Hydroxyethyl)-N-(2-methoxyethyl)-4-[(6-methoxy-1H-indazol-5-yl)amino]-5,6,7,8-tetrahydro[1]benzothieno[2,3-d]pyrimidine-7-carboxamide] the value was 8.9 nM; for `COc1cc2[nH]ncc2cc1Nc1ncnc2sc3c(c12)CC[C@@H](C(=O)N1CCOCC1)C3` [Example 29, {(7R)-4-[(6-Methoxy-1H-indazol-5-yl)amino]-5,6,7,8-tetrahydro[1]benzothieno[2,3-d]pyrimidin-7-yl}(morpholin-4-yl)methanone], 8.7 nM.
The same measure, in the same setting: with `O=C([C@H]1CCc2c(sc3ncnc(Nc4cc5cn[nH]c5cc4Br)c23)C1)N1CCOCC1` [Example 237, {(7S)-4-[(6-Bromo-1H-indazol-5-yl)amino]-5,6,7,8-tetrahydro[1]benzothieno[2,3-d]pyrimidin-7-yl}(morpholin-4-yl)methanone] the figure was 2.8 nM; with `CCN(C(=O)[C@H]1CCc2c(sc3ncnc(Nc4cc5cn[nH]c5cc4OC(C)C)c23)C1)C(C)C` [Example 80, (7S)—N-Ethyl-N-(propan-2-yl)-4-{[6-(propan-2-yloxy)-1H-indazol-5-yl]amino}-5,6,7,8-tetrahydro[1]benzothieno[2,3-d]pyrimidine-7-carboxamide], 0.3 nM.
`C[C@@H]1CN(C(=O)[C@H]2CCc3c(sc4ncnc(Nc5cc6cn[nH]c6cc5Br)c34)C2)C[C@@H](C)O1` [Example 233, {(7S)-4-[(6-Bromo-1H-indazol-5-yl)amino]-5,6,7,8-tetrahydro[1]benzothieno[2,3-d]pyrimidin-7-yl}[(2R,6R)-2,6-dimethylmorpholin-4-yl]methanone]: the IC50 stood at 2.1 nM.
Still for that read-out and setting: with `COc1cc2[nH]ncc2cc1Nc1ncnc2sc3c(c12)CC[C@H](C(=O)N(C)C(C)C)C3` [Example 26, (7S)-4-[(6-Methoxy-1H-indazol-5-yl)amino]-N-methyl-N-(propan-2-yl)-5,6,7,8-tetrahydro[1]benzothieno[2,3-d]pyrimidine-7-carboxamide] the figure was 0.2 nM.

Staying with this assay, now noted: Table 2; ratio of the IC50-value of an R-enantiomer and its corresponding S-enantiomer.
For `COc1cc2[nH]ncc2cc1Nc1ncnc2sc3c(c12)CC[C@H](C(=O)N(C)C(C)C)C3` [Example 26, (7S)-4-[(6-Methoxy-1H-indazol-5-yl)amino]-N-methyl-N-(propan-2-yl)-5,6,7,8-tetrahydro[1]benzothieno[2,3-d]pyrimidine-7-carboxamide], the “Activity-Ratio MKNK1” value was determined as 172.9.

The assay is the same for the next values; noted with them: Table 3; example numbers of WO2013/174744(A1), not of this patent; pure enantiomer from chiral HPLC, absolute configuration at amide 'R or S'; read-out: MKNK1 IC50.
Regarding “(7S)-4-(1H-Indazol-5-ylamino)-N-methyl-N-(3,3,3-trifluoropropyl)-5,6,7,8-tetrahydro[1]benzothieno[2,3-d]pyrimidine-7-carboxamide [Example 6]”, the concentration for half-maximal inhibition (IC50) was determined as 15.6 nM.

The assay is the same for the next values; noted with them: Table 3; example numbers of WO2013/174744(A1), not of this patent; pure enantiomer from chiral HPLC, absolute configuration at amide 'S or R'; read-out: MKNK1 IC50.
Regarding “(7S)-4-(1H-Indazol-5-ylamino)-N-methyl-N-(3,3,3-trifluoropropyl)-5,6,7,8-tetrahydro[1]benzothieno[2,3-d]pyrimidine-7-carboxamide [Example 6]”, the IC50 was determined as 7.5 nM.

Staying with this assay, now noted: Table 3; example numbers of WO2013/174744(A1); ratio of the IC50 values of the two enantiomers.
Regarding “(7S)-4-(1H-Indazol-5-ylamino)-N-methyl-N-(3,3,3-trifluoropropyl)-5,6,7,8-tetrahydro[1]benzothieno[2,3-d]pyrimidine-7-carboxamide [Example 6]”, the “Activity Ratio MKNK1” value is on record as 2.1.
